These results are taken from patent publication US20210261512A1, “NOVEL COMPOUNDS” (INFLAZOME LIMITED, priority 2018, published 2021).

Some results are limits rather than exact numbers.

One may read the IC50 as the concentration at which inhibition is half-maximal. Low values mean greater potency in that assay, high ones weaker potency in that assay.

This assay has as its target NLRP3 (Homo sapiens, UniProt Q96P20). The experiment in a line: THP-1 cells pyroptosis assay. Format: cell-based. Also on record: Seed THP-1 cells (25,000 cells/well) containing 1.0 μg/ml LPS; host or cells: THP-1. The conditions noted are these: LPS 1.0 μg/ml, nigericin 5 μM, resazurin readout, 10 μM top dose (Example 2: top dose of 30 μM). The essentials:
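Pyroptosis induced by 5 μM nigericin (1 h) in LPS-primed (1 μg/ml) THP-1 cells, 25,000/well in serum-free RPMI, after 3 h compound pre-treatment (8 points, 10 μM top unless stated). Surviving cells measured with 100 μM resazurin, Ex 560/Em 590; IC50 via variable-slope 4-parameter regression.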

Chain of NLRP3 (Q96P20 whole entry): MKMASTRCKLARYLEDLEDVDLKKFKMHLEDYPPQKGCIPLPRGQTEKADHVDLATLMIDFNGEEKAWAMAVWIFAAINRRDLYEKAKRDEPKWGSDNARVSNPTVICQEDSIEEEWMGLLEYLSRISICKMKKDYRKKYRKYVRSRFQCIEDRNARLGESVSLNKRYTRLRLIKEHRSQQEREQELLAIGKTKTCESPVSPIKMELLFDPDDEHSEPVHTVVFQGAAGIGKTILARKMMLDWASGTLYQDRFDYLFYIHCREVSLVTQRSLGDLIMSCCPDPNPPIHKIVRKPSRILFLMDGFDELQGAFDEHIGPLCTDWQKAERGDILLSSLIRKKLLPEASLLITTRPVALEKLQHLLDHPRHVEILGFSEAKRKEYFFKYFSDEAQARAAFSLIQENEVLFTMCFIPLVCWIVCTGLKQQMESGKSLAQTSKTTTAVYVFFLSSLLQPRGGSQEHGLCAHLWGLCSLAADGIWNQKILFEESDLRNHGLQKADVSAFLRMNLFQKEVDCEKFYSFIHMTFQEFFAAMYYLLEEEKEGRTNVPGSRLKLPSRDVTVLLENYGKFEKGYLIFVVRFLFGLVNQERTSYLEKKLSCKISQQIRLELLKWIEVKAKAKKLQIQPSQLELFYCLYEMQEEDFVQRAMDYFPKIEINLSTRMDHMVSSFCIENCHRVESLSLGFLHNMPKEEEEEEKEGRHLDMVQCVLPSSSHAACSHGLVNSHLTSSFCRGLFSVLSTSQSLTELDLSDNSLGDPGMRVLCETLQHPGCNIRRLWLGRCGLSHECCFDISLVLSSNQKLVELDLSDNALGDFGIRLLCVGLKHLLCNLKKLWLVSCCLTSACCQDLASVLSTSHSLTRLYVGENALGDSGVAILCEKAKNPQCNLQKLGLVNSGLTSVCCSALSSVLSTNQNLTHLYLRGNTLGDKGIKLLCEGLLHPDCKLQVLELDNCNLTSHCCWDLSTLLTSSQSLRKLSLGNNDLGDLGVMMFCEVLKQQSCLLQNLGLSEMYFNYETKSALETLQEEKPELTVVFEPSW

Turning to `CN1C[C@H]2[C@@H]1CCN2S(=O)(=O)c1nnc(Nc2c3c(cc4c2CCC4)CCC3)[nH]1` [Example 269, N-(1,2,3,5,6,7-hexahydro-s-indacen-4-yl)-5-(((1S,5S)-6-methyl-2,6-diazabicyclo[3.2.0]heptan-2-yl)sulfonyl)-4H-1,2,4-triazol-3-amine], the IC50 is ≤ 10 µM.

Take `CC(C)(O)CNS(=O)(=O)c1nnc(Nc2c3c(cc4c2CCC4)CCC3)[nH]1` [Example 272, 5-((1,2,3,5,6,7-hexahydro-s-indacen-4-yl)amino)-N-(2-hydroxy-2-methylpropyl)-4H-1,2,4-triazole-3-sulfonamide]: the half-inhibitory concentration (IC50) is ≤ 10 µM.

Consider `CN1CCCN(S(=O)(=O)c2nnc(Nc3c4c(cc5c3CCC5)CCC4)[nH]2)CC1` [Example 273, N-(1,2,3,5,6,7-hexahydro-s-indacen-4-yl)-5-((4-methyl-1,4-diazepan-1-yl)sulfonyl)-4H-1,2,4-triazol-3-amine], for which the IC50 is ≤ 10 µM.

On to `CN1CC2(CCN(S(=O)(=O)c3nnc(Nc4c5c(cc6c4CCC6)CCC5)[nH]3)CC2)C1` [Example 280, N-(1,2,3,5,6,7-hexahydro-s-indacen-4-yl)-5-((2-methyl-2,7-diazaspiro[3.5]nonan-7-yl)sulfonyl)-4H-1,2,4-triazol-3-amine], for which the IC50 is ≤ 5 µM.

For `O=S(=O)(c1nnc(Nc2c3c(cc4c2CCC4)CCC3)[nH]1)N1CCn2cncc2C1` [Example 281, 5-((5,6-dihydroimidazo[1,5-a]pyrazin-7 (8H)-yl)sulfonyl)-N-(1,2,3,5,6,7-hexahydro-s-indacen-4-yl)-4H-1,2,4-triazol-3-amine], the half-maximal inhibitory concentration (IC50) was ≤ 10 µM.

For the compound `COC(C)(C)C1CCN(S(=O)(=O)c2nnc(Nc3c4c(cc5c3CCC5)CCC4)[nH]2)C1` (stereo not drawn) [Example 282, N-(1,2,3,5,6,7-hexahydro-s-indacen-4-yl)-5-((3-(2-methoxypropan-2-yl)pyrrolidin-1-yl)sulfonyl)-4H-1,2,4-triazol-3-amine], the IC50 is ≤ 5 µM.

For the compound `COCC1CCN(S(=O)(=O)c2nnc(Nc3c4c(cc5c3CCC5)CCC4)[nH]2)C1` (stereo not drawn) [Example 283, N-(1,2,3,5,6,7-hexahydro-s-indacen-4-yl)-5-((3-(methoxymethyl)pyrrolidin-1-yl)sulfonyl)-4H-1,2,4-triazol-3-amine], the IC50 is ≤ 5 µM.

Turning to `O=S(=O)(c1nnc(Nc2c3c(cc4c2CCC4)CCC3)[nH]1)N1CC[C@H](CO)C1` [Example 284, (S)-(1-((5-((1,2,3,5,6,7-hexahydro-s-indacen-4-yl)amino)-4H-1,2,4-triazol-3-yl)sulfonyl)pyrrolidin-3-yl)methanol], the IC50 was ≤ 10 µM.

For the compound `O=S(=O)(c1nnc(Nc2c3c(cc4c2CCC4)CCC3)[nH]1)N1CC(c2ccccn2)C1` [Example 285, N-(1,2,3,5,6,7-hexahydro-s-indacen-4-yl)-5-((3-(pyridin-2-yl)azetidin-1-yl)sulfonyl)-4H-1,2,4-triazol-3-amine], the half-maximal inhibitory concentration (IC50) was ≤ 5 µM.

As for `O=S(=O)(c1nnc(Nc2c3c(cc4c2CCC4)CCC3)[nH]1)N1CCC2(CC1)CNC2` [Example 287, 5-((2,7-diazaspiro[35]nonan-7-yl)sulfonyl)-N-(1,2,3,5,6,7-hexahydro-s-indacen-4-yl)-4H-1,2,4-triazol-3-amine], the IC50 was ≤ 10 µM.

Regarding `O=S(=O)(c1nnc(Nc2c3c(cc4c2CCC4)CCC3)[nH]1)N1CCC(F)(F)CC1` [Example 297, 5-((4,4-difluoropiperidin-1-yl)sulfonyl)-N-(1,2,3,5,6,7-hexahydro-s-indacen-4-yl)-4H-1,2,4-triazol-3-amine], the IC50 was ≤ 10 µM.

On to `O=S1(=O)CCN(S(=O)(=O)c2nnc(Nc3c4c(cc5c3CCC5)CCC4)[nH]2)CC1` [Example 298, 4-((5-((1,2,3,5,6,7-hexahydro-s-indacen-4-yl)amino)-4H-1,2,4-triazol-3-yl)sulfonyl)thiomorpholine 1,1-dioxide], for which the IC50 is ≤ 10 µM.

In the case of `NC(=O)c1ccccc1S(=O)(=O)c1n[nH]c(Nc2c3c(cc4c2CCC4)CCC3)n1` [Example 311, 2-((5-((1,2,3,5,6,7-hexahydro-s-indacen-4-yl)amino)-1H-1,2,4-triazol-3-yl)sulfonyl)benzamide], the IC50 is ≤ 5 µM.

`COc1cc(-c2c(C)cc3c(c2Nc2nnc(S(C)(=O)=O)[nH]2)CCC3)ccn1` [Example 312, N-(5-(2-methoxypyridin-4-yl)-6-methyl-2,3-dihydro-1H-inden-4-yl)-5-(methylsulfonyl)-4H-1,2,4-triazol-3-amine]: the IC50 was ≤ 5 µM.

In the case of `O=S(=O)(c1nnc(Nc2c3c(cc4c2CCC4)CCC3)[nH]1)N1CCCC2(CCOC2)C1` (stereo not drawn) [Example 313, 5-(2-oxa-7-azaspiro[4.5]decan-7-ylsulfonyl)-N-(1,2,3,5,6,7-hexahydro-s-indacen-4-yl)-4H-1,2,4-triazol-3-amine], the 50% inhibitory concentration (IC50) was ≤ 5 µM.

As to `O=S(=O)(c1nnc(Nc2c3c(cc4c2CCC4)CCC3)[nH]1)N1CCC2(CCOC2)C1` (stereo not drawn) [Example 314, 5-(2-oxa-7-azaspiro[4.4]nonan-7-ylsulfonyl)-N-(1,2,3,5,6,7-hexahydro-s-indacen-4-yl)-4H-1,2,4-triazol-3-amine], the IC50 was ≤ 5 µM.

In the case of `CC(C)(O)C1CCCN(S(=O)(=O)c2nnc(Nc3c4c(cc5c3CCC5)CCC4)[nH]2)C1` (stereo not drawn) [Example 315, 2-(1-((5-((1,2,3,5,6,7-hexahydro-s-indacen-4-yl)amino)-4H-1,2,4-triazol-3-yl)sulfonyl)piperidin-3-yl)propan-2-ol], the concentration for half-maximal inhibition (IC50) was ≤ 5 µM.

For `Cc1cc2c(c(Nc3nnc(S(=O)(=O)N4CCC(N(C)C)CC4)[nH]3)c1-c1ccnc(OC3CCN(C)CC3)c1)CCC2` [Example 316, N,N-dimethyl-1-((5-((6-methyl-5-(2-((1-methylpiperidin-4-yl)oxy)pyridin-4-yl)-2,3-dihydro-1H-inden-4-yl)amino)-4H-1,2,4-triazol-3-yl)sulfonyl)piperidin-4-amine], the 50% inhibitory concentration (IC50) was ≤ 5 µM.

Consider `CN1CCC(Oc2cc(-c3ccc4c(c3Nc3nnc(S(=O)(=O)N5CCC(N(C)C)CC5)[nH]3)CCC4)ccn2)CC1` [Example 321, N,N-dimethyl-1-((5-((5-(2-((1-methylpiperidin-4-yl)oxy)pyridin-4-yl)-2,3-dihydro-1H-inden-4-yl)amino)-4H-1,2,4-triazol-3-yl)sulfonyl)piperidin-4-amine], for which the IC50 was ≤ 5 µM.

Regarding `CS(=O)(=O)c1nnc(Nc2c3c(c(C#N)c4c2CCC4)CCC3)[nH]1` [Example 322, 8-((5-(methylsulfonyl)-4H-1,2,4-triazol-3-yl)amino)-1,2,3,5,6,7-hexahydro-s-indacene-4-carbonitrile], the IC50 is ≤ 5 µM.

Turning to `N#Cc1c2c(c(Nc3nnc(S(=O)(=O)c4ccccc4)[nH]3)c3c1CCC3)CCC2` [Example 323, 8-((5-(phenylsulfonyl)-4H-1,2,4-triazol-3-yl)amino)-1,2,3,5,6,7-hexahydro-5-indacene-4-carbonitrile], the half-inhibitory concentration (IC50) was ≤ 5 µM.

Take `COc1cc(-c2ccc3c(c2Nc2nnc(S(=O)(=O)c4ccc(C(C)(C)O)cc4)[nH]2)CCC3)ccn1` [Example 324, 2-(4-((5-((5-(2-methoxypyridin-4-yl)-2,3-dihydro-1H-inden-4-yl)amino)-4H-1,2,4-triazol-3-yl)sulfonyl)phenyl)propan-2-ol]: the IC50 was ≤ 0.5 µM.

For `NS(=O)(=O)c1cccc(S(=O)(=O)c2nnc(Nc3c4c(cc5c3CCC5)CCC4)[nH]2)c1` [Example 326, 3-((5-((1,2,3,5,6,7-hexahydro-s-indacen-4-yl)amino)-4H-1,2,4-triazol-3-yl)sulfonyl)benzenesulfonamide], the IC50 was ≤ 5 µM.

For the compound `NC(=O)c1ccc(S(=O)(=O)c2nnc(Nc3c4c(cc5c3CCC5)CCC4)[nH]2)cc1` [Example 327, 4-((5-((1,2,3,5,6,7-hexahydro-s-indacen-4-yl)amino)-4H-1,2,4-triazol-3-yl)sulfonyl)benzamide], the IC50 was ≤ 5 µM.

Take `O=C1CC2(CN1)CN(S(=O)(=O)c1nnc(Nc3c4c(cc5c3CCC5)CCC4)[nH]1)C2` [Example 332, 2-((5-((1,2,3,5,6,7-hexahydro-s-indacen-4-yl)amino)-4H-1,2,4-triazol-3-yl)sulfonyl)-2,6-diazaspiro[3.4]octan-7-one]: the IC50 is ≤ 10 µM.

Turning to `O=S(=O)(c1nnc(Nc2c3c(cc4c2CCC4)CCC3)[nH]1)N1CCC2(COC2)C1` [Example 333, 5-(2-oxa-6-azaspiro[3.4]octan-6-ylsulfonyl)-N-(1,2,3,5,6,7-hexahydro-s-indacen-4-yl)-4H-1,2,4-triazol-3-amine], the IC50 is ≤ 5 µM.

Turning to `O=S(=O)(c1ccn(CCO)n1)c1nnc(Nc2c3c(cc4c2CCC4)CCC3)[nH]1` [Example 334, 2-(3-((5-((1,2,3,5,6,7-hexahydro-s-indacen-4-yl)amino)-4H-1,2,4-triazol-3-yl)sulfonyl)-1H-pyrazol-1-yl)ethanol], the IC50 was ≤ 1 µM.

Regarding `O=S(=O)(c1cnn(CCO)c1)c1nnc(Nc2c3c(cc4c2CCC4)CCC3)[nH]1` [Example 335, 2-(4-((5-((1,2,3,5,6,7-hexahydro-s-indacen-4-yl)amino)-4H-1,2,4-triazol-3-yl)sulfonyl)-1H-pyrazol-1-yl)ethanol], the IC50 is ≤ 5 µM.

`CC(C)(O)Cn1cc(S(=O)(=O)c2nnc(Nc3c4c(cc5c3CCC5)CCC4)[nH]2)cn1` [Example 336, 1-(4-((5-((1,2,3,5,6,7-hexahydro-s-indacen-4-yl)amino)-4H-1,2,4-triazol-3-yl)sulfonyl)-1H-pyrazol-1-yl)-2-methylpropan-2-ol]: the concentration for half-maximal inhibition (IC50) is ≤ 5 µM.

Take `CC(C)n1cc(S(=O)(=O)c2nnc(Nc3c4c(cc5c3CCC5)CCC4)[nH]2)cn1` [Example 338, N-(1,2,3,5,6,7-hexahydro-s-indacen-4-yl)-5-((1-isopropyl-1H-pyrazol-4-yl)sulfonyl)-4H-1,2,4-triazol-3-amine]: the IC50 was ≤ 5 µM.
